Results as given in US20230304010A1, “COMPOSITIONS AND METHODS FOR TREATING VIRAL INFECTIONS” (priority 2020, published 2023).
“And” between values parts separate entries of the source, which are not always exact repeats. Equal values may be shown once. Read-outs that look alike come from different tables or passages of the source. Ends that are not written are not given here. Peptide text beside a SMILES is read from it.

Assays:
[1] = target: ACE2:SARS-CoV-2 Spike interaction (UniProt P0DTC2+Q9BYF1); experiment: biochemical; format: binding
[2] = target: SARS-CoV-2 Spike: ACE2 interaction (UniProt P0DTC2+Q9BYF1); experiment: biochemical; format: binding
[3] = Nanoparticle formation of peptides with ADGN-106: mean size and polydispersity (Zetasizer); format: physicochemical; conditions: 25° C.; for Mean Size (nm): peptide/ADGN-106 complexes; for PI: polydispersity index of peptide/ADGN-106 complexes
Excerpt: We then tested the ability of the different peptides to form nanoparticle organization in the presence of ADGN-106 or ADGN-100 peptide. […] Peptides were complexed with 5 or 10 molar excess of ADGN-106.

[4] = read-out: ACE2:SARS-CoV-2 Spike IC50
[5] = read-out: SARS-CoV-2 Spike:ACE2 IC50
[6] = IC50, block of ACE2:SARS-CoV-2 Spike interaction
[7] = IC50, block of SARS-CoV-2 Spike: ACE2 interaction

SARS-CoV-2 Spike: ACE2 interaction, sequence (Q9BYF1 18-740, one chain of several): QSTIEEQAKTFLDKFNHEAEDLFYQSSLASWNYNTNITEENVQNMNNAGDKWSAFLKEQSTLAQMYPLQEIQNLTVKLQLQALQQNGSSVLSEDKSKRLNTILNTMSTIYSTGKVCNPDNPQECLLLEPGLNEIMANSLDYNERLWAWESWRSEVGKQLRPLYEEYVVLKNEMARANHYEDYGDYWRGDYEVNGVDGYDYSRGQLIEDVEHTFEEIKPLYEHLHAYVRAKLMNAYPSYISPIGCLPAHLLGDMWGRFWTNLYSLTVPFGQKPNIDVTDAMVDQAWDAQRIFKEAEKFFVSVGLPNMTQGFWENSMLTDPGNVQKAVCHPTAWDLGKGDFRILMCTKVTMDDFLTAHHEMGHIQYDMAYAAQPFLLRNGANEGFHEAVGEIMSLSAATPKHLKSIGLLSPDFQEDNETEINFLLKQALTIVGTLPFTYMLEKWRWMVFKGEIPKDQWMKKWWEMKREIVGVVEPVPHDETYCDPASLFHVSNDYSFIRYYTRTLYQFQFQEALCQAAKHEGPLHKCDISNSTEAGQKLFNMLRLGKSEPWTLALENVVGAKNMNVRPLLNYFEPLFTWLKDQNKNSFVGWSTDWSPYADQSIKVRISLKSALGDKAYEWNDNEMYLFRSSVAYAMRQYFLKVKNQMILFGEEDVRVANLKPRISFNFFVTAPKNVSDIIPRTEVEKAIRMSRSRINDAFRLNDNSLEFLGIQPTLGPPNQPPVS
ACE2:SARS-CoV-2 Spike interaction, sequence (Q9BYF1 18-740, one chain of several): as above

Compound	IC50 ([1]; ACE2:SARS-CoV-2 Spike IC50) [µM]	IC50 ([2]; SARS-CoV-2 Spike:ACE2 IC50) [µM]	other results
Ac-KTFLDKFNHEAEDLF [Seq25]	1.9	2.5	–
CC(C)C[C@H](NC(=O)[C@@H]1CCCN1C(=O)[C@H](Cc1ccccc1)NC(=O)[C@@H](N)Cc1ccc(O)cc1)C(=O)N[C@@H](CCC(N)=O)C(=O)N[C@@H](CO)C(=O)N[C@@H](Cc1ccc(O)cc1)C(=O)NCC(=O)N[C@@H](Cc1ccccc1)C(=O)N[C@@H](CCC(N)=O)C(=O)N1CCC[C@H]1C(=O)N[C@H](C(=O)N[C@@H](CC(N)=O)C(=O)NCC(=O)N[C@H](C(=O)NCC(=O)N[C@@H](Cc1ccc(O)cc1)C(=O)N[C@@H](CCC(N)=O)C(=O)O)C(C)C)[C@@H](C)O [Seq8]	> 10	> 10	–
GNYNYLYRL [Seq3]	> 10	> 10	–
STEYQAGST [Seq5]	> 10	> 10	–
TNGVGYQPY [Seq11]	> 1	> 1	–
GFQPTNGVK [Seq10]	> 10	> 10	–
KVGGNYNYL [Seq2]	> 10	> 10	–
VEGFNCYFP [Seq7]	> 10	> 10	–
Ac-G*NYNYLYRL*-Ava-LWRALWRLWRSLWRLLWK-NH2 [Seq14]	–	–	IC50 [1, 4]: > 10 µM; IC50 [2, 5]: > 10 µM
Ac-EQAKTFLDKFNHEAEDLF [Seq24]	0.57 ± 0.03	1.3	–
CC[C@H](C)[C@H](NC(=O)[C@H](CCCNC(=N)N)NC(=O)[C@H](Cc1ccccc1)NC(=O)[C@H](CC(=O)O)NC(=O)CNC(=O)[C@H](CCCCN)NC(=O)CNC(=O)[C@H](CC(C)C)NC(=O)[C@H](CC(=O)O)NC(=O)[C@H](Cc1c[nH]c2ccccc12)NC(=O)[C@H](C)NC(=O)[C@@H](NC(C)=O)[C@@H](C)O)C(=O)NCCCCCC(=O)N[C@@H](CC(C)C)C(=O)N[C@@H](Cc1c[nH]c2ccccc12)C(=O)N[C@@H](CCCNC(=N)N)C(=O)N[C@@H](C)C(=O)N[C@@H](CC(C)C)C(=O)N[C@@H](Cc1c[nH]c2ccccc12)C(=O)N[C@@H](CCCNC(=N)N)C(=O)N[C@@H](CC(C)C)C(=O)N[C@@H](Cc1c[nH]c2ccccc12)C(=O)N[C@@H](CCCNC(=N)N)C(=O)N[C@@H](CO)C(=O)N[C@@H](CC(C)C)C(=O)N[C@@H](Cc1c[nH]c2ccccc12)C(=O)N[C@@H](CCCNC(=N)N)C(=O)N[C@@H](CC(C)C)C(=O)N[C@@H](CC(C)C)C(=O)N[C@@H](Cc1c[nH]c2ccccc12)C(=O)N[C@@H](CCCCN)C(N)=O [Seq36]	> 1	> 1	–
Ac-TAWDLGKGDFRI [Seq29]	> 10	> 10	IC50 [1, 6]: > 10 µM; IC50 [2, 7]: > 10 µM
Ac-KTFLDKFNHEAEDLFYS [Seq26]	2.1	1.9	–
Ac-S*KVGGNYNYLY*R-Ava/Ahx-LWRALWRLWRSLWRLLWK-NH2 [Seq12]	–	–	blocked ACE2:SARS-CoV-2 Spike interaction [1]: blocked; Mean Size (nm) [3]: 35.4 ± 5 nm; PI [3]: 0.21
Ac-T*EYQAGSTK*Ava-LWRALWRLWRSLWRLLWK-NH2 [Seq16]	–	–	IC50 [1, 4]: > 10 µM; Mean Size (nm) [3]: 44.2 ± 7 nm; PI [3]: 0.28; IC50 [2, 5]: > 1 µM
CSCC[C@H](NC(=O)[C@H](CCC(N)=O)NC(=O)[C@H](C)NC(=O)[C@H](CC(C)C)NC(=O)[C@@H](NC(=O)[C@H](CO)NC(=O)[C@H](CCC(N)=O)NC(=O)[C@H](CCC(=O)O)NC(=O)[C@H](CCCCN)NC(=O)[C@H](CC(C)C)NC(=O)[C@H](Cc1ccccc1)NC(=O)[C@H](C)NC(=O)[C@H](CO)NC(=O)[C@H](Cc1c[nH]c2ccccc12)NC(=O)[C@H](CCCCN)NC(=O)[C@@H]1CCCN1C(=O)[C@H](Cc1ccccc1)NC(=O)[C@H](CC(C)C)NC(=O)[C@H](CC(=O)O)NC(=O)[C@H](CCC(=O)O)NC(=O)[C@H](C)NC(=O)[C@H](CCC(=O)O)NC(=O)[C@H](Cc1c[nH]cn1)NC(=O)[C@H](CC(N)=O)NC(=O)[C@H](Cc1ccccc1)NC(=O)[C@H](CCCCN)NC(=O)[C@H](CC(=O)O)NC(=O)[C@H](CC(C)C)NC(=O)[C@H](Cc1ccccc1)NC(=O)[C@@H](NC(=O)[C@H](CCCCN)NC(=O)[C@H](C)NC(=O)[C@H](CCC(N)=O)NC(=O)[C@H](CCC(=O)O)NC(C)=O)[C@@H](C)O)[C@@H](C)O)C(=O)N[C@@H](Cc1ccc(O)cc1)C(=O)NCC(=O)NCCCCCC(=O)N[C@@H](CC(C)C)C(=O)N[C@@H](Cc1c[nH]c2ccccc12)C(=O)N[C@@H](CCCNC(=N)N)C(=O)N[C@@H](C)C(=O)N[C@@H](CC(C)C)C(=O)N[C@@H](Cc1c[nH]c2ccccc12)C(=O)N[C@@H](CCCNC(=N)N)C(=O)N[C@@H](CC(C)C)C(=O)N[C@@H](Cc1c[nH]c2ccccc12)C(=O)N[C@@H](CCCNC(=N)N)C(=O)N[C@@H](CO)C(=O)N[C@@H](CC(C)C)C(=O)N[C@@H](Cc1c[nH]c2ccccc12)C(=O)N[C@@H](CCCNC(=N)N)C(=O)N[C@@H](CC(C)C)C(=O)N[C@@H](CC(C)C)C(=O)N[C@@H](Cc1c[nH]c2ccccc12)C(=O)N[C@@H](CCCCN)C(N)=O [Seq39]	0.0684 ± 0.01	0.0552	increase of potency/efficiency by covalent coupling to ADGN peptide [1]: 1.4 folds; Mean Size (nm) [3]: 48.5 ± 5 nm; PI [3]: 0.29
CSCC[C@H](NC(=O)[C@H](CO)NC(=O)[C@H](CC(N)=O)NC(=O)[C@H](CCC(=O)O)NC(=O)[C@H](Cc1c[nH]c2ccccc12)NC(=O)[C@H](Cc1ccccc1)NC(=O)CNC(=O)[C@H](CCC(N)=O)NC(=O)[C@@H](NC(=O)[C@H](CCSC)NC(=O)[C@H](CC(N)=O)NC(C)=O)[C@@H](C)O)C(=O)N[C@@H](CC(C)C)C(=O)N[C@H](C(=O)N[C@@H](CC(=O)O)C(=O)NCCCCCC(=O)N[C@@H](CC(C)C)C(=O)N[C@@H](Cc1c[nH]c2ccccc12)C(=O)N[C@@H](CCCNC(=N)N)C(=O)N[C@@H](C)C(=O)N[C@@H](CC(C)C)C(=O)N[C@@H](Cc1c[nH]c2ccccc12)C(=O)N[C@@H](CCCNC(=N)N)C(=O)N[C@@H](CC(C)C)C(=O)N[C@@H](Cc1c[nH]c2ccccc12)C(=O)N[C@@H](CCCNC(=N)N)C(=O)N[C@@H](CO)C(=O)N[C@@H](CC(C)C)C(=O)N[C@@H](Cc1c[nH]c2ccccc12)C(=O)N[C@@H](CCCNC(=N)N)C(=O)N[C@@H](CC(C)C)C(=O)N[C@@H](CC(C)C)C(=O)N[C@@H](Cc1c[nH]c2ccccc12)C(=O)N[C@@H](CCCCN)C(N)=O)[C@@H](C)O [Seq37]	0.645	> 1	Mean Size (nm) [3]: 59.2 ± 14 nm; PI [3]: 0.24
Ac-V*EGENCYF*Ava-LWRALWRLWRSLWRLLWK-NH2 [Seq18]	–	–	IC50 [1, 4]: > 10 µM; IC50 [2, 5]: > 10 µM
CC(C)[C@H](NC(=O)CNC(=O)[C@H](CC(N)=O)NC(=O)[C@@H](N)CS)C(=O)N[C@@H](CCC(=O)O)C(=O)NCC(=O)N[C@@H](Cc1ccccc1)C(=O)N[C@@H](CC(N)=O)C(=O)N[C@@H](CS)C(=O)O [Seq6] (H-CNGVEGFNC-OH)	> 10	> 10	–
Ac-EQAKTFLDKFNHEAEDLFPKWSAFLKEQSTLAQMYG [Seq27]	–	–	folds more potent than SBP-1-ADGN-106/ADGN-106 complex [1]: 6 folds; folds more potent than SBP-1 coupled to ADGN-106 [1]: 6 folds; folds more potent than SBP-1 peptide/ADGN-106 complex [1]: 40 folds; folds more potent than free SBP-1 [1]: 15 folds; Mean Size (nm) [3]: 62.1 ± 10 nm; PI [3]: 0.21; folds more potent than SBP-1-ADGN-106/ADGN-106 complex [2]: 4 folds; folds more potent than SBP-1 coupled to ADGN-106 [2]: 3.5 folds; folds more potent than SBP-1 peptide/ADGN-106 complex [2]: 35 folds; folds more potent than free SBP-1 [2]: 7 folds
Ac-NMTQGFWENPGGPTAWDLGK [Seq31]	> 10	> 10	IC50 [1, 6]: > 10 µM and 25 µM; IC50 [2, 7]: > 10 µM
Ac-K*VGGNYNYK*-Ava-LWRALWRLWRSLWRLLWK-NH2 [Seq13]	–	–	IC50 [1, 4]: > 10 µM; IC50 [2, 5]: > 10 µM
SYGFQPTNGV [Seq9]	> 10	> 10	–
Ac-NMTQGFWENSMLTD [Seq30]	> 10	> 10	IC50 [1, 6]: > 10 µM; IC50 [2, 7]: > 10 µM
CC(C)C[C@H](NC(=O)[C@H](CCCNC(=N)N)NC(=O)[C@H](Cc1ccc(O)cc1)NC(=O)[C@H](CC(C)C)NC(=O)[C@H](Cc1ccc(O)cc1)NC(=O)[C@H](CC(N)=O)NC(=O)[C@H](Cc1ccc(O)cc1)NC(=O)[C@H](CC(N)=O)NC(=O)CNC(=O)CN)C(=O)N[C@@H](Cc1ccccc1)C(=O)N[C@@H](CCCNC(=N)N)C(=O)N[C@@H](CCCCN)C(=O)O [Seq4]	> 10	> 10	–
CC(C)C[C@H](NC(=O)[C@H](Cc1ccc(O)cc1)NC(=O)[C@H](CC(N)=O)NC(=O)[C@H](Cc1ccc(O)cc1)NC(=O)[C@H](CC(N)=O)NC(=O)CNC(=O)CNC(=O)[C@@H](NC(=O)[C@H](CCCCN)NC(=O)[C@@H](N)CO)C(C)C)C(=O)N[C@@H](Cc1ccc(O)cc1)C(=O)N[C@@H](CCCNC(=N)N)C(=O)O [Seq1]	> 10	> 10	–
